pIC50: −log10 of the molar value.
System: NCI-H196 SCLC complex tumor spheroid viability
Test: Anticancer human tumor NCI-H196 cell line growth inhibition;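 note: spheroids exposed to compounds for 7 days before readout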;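 for viability, T/C: 100% = DMSO vehicle control wells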
Settings: for pIC50: curve of first compound; for viability, T/C: stronger effect = lower value
Text: Multicellular complex tumor spheroid response to DNA repair inhibitors in combination with DNA-damaging drugs
This study explores the anticancer activities of DNA-damaging drugs and inhibitors of DNA damage repair, both as single agents and in combinations. Complex tumor spheroids comprised of malignant cells, endothelial cells and mesenchymal stem cells served as an in vitro model for human solid tumors. This model system incorporates physiologically relevant features and patient-derived or established malignant cell lines with clinically relevant genetic alterations from many tumor types. Twenty-six patient-derived or established malignant cell lines were evaluated representing sarcoma, melanoma, small cell lung cancer (SCLC), non-small cell lung cancer (NSCLC), as well as bladder, ovarian and pancreatic cancers. The concentration ranges selected for each drug and investigational agent were based upon clinically achievable concentrations if the clinical Cmax of the agent was known.
Compounds. The drugs and compounds olaparib (NSC753686), talazoparib (NSC767125), berzosertib (NSC777718), elimusertib (NSC800525), nedisertib (NSC802822), VX-984 (NSC792969), AZD-1390 (NSC803789), temozolomide (NSC362856), topotecan (NSC609699), trabectedin (NSC813783), staurosporine (NSC755774), and gemcitabine (NSC613327) were obtained from the National Cancer Institute (NCI) Developmental Therapeutics Program Chemical Repository. The FDA-approved anticancer drug set is available from the Developmental Therapeutics Program at https://dtp.cancer.gov/organization/dscb/obtaining/available_plates.htm. […] The stock solutions were prepared in dimethyl sulfoxide (DMSO, Sigma-Aldrich, St. Louis, MO, cat. D2650) at 400-fold the tested concentration and stored at -70 degrees C. Prior to their use, the stock solutions were diluted in fresh medium and the final DMSO concentration in the assay was 0.25% (v/v). All drugs and investigational agents were tested over a range starting from a high concentration at or near the clinical Cmax and decreasing in half-log increments. If the clinical Cmax for an agent had not been determined, the highest concentration tested was 10 microM.
Cell Lines. The patient-derived cancer cell (PDC) lines: 156681-154-R-J1-PDC, 283228-195-R-J1-PDC, 287954-098-R-J1-PDC, 292921-168-R-J2-PDC, 349418-098-R-PDC, 425362-245-T-J1-PDC, 556581-035-R-J1-PDC, and BL0293-F563-PDC were received from the NCI Patient-Derived Models Repository (PDMR, https://pdmr.cancer.gov). The established cell lines HS-SY-2 (RRID:CVCL_8719), MPNST, and SYO-1 (RRID:CVCL_7146) were obtained from the Sloan Kettering Institute. The alveolar soft parts sarcoma cell line ASPS-1 (RRID:CVCL_S738) was established at the NCI and grown from internal seed stocks. The following established cell lines were purchased from the American Type Culture Collection (ATCC, Manassas, VA): G-401 (ATCC, cat. CRL-1441, RRID:CVCL_0270), SW982 (ATCC, cat. HTB-93, RRID:CVCL_1734), VA-ES-BJ (ATCC, cat. CRL-2138, RRID:CVCL_1785), NCI-H719 (ATCC, cat. CRL-5837, RRID:CVCL_1582), NCI-H196 (ATCC, cat. CRL-5823, RRID:CVCL_1509), NCI-H841 (ATCC, cat. CRL-5845, RRID:CVCL_1595), NCI-H1618 (ATCC, cat. CRL-5879, RRID:CVCL_1480), NCI-H1876 (ATCC, cat. CRL-5902, RRID:CVCL_1503), DMS 114 (ATCC, cat. CRL-2066; RRID:CVCL_1174), NCI-H211 (ATCC, cat. CRL-5824; RRID:CVCL_1529), and SW 1271 (ATCC, cat. CRL-2177, RRID:CVCL_1716). The small cell lung cancer cell line COR-L88 was purchased from Sigma-Aldrich (cat. 92031917-1VL, RRID:CVCL_1141). The non-small cell lung cancer cell lines NCI-H226 (RRID:CVCL_1544) and NCI-H322M (RRID:CVCL_1557) were established at the NCI and grown from internal seed stocks. Pooled donor human umbilical vein endothelial cells (HUVEC, Lonza, cat. CC-2519) and human mesenchymal stem cells (hMSC, Lonza, cat. PT-2501) were purchased from Lonza (Walkersville, MD).
Cell Culture. All cells were maintained in an incubator at 37 degrees C and 5% CO2 with 95% humidity. […]

[1] = second compound 0.003 µM, first compound 0.0316 µM
[2] = second compound 0.003 µM, first compound 0.1 µM
[3] = second compound 0.003 µM, first compound 0.316 µM
[4] = second compound 0.003 µM, first compound 1 µM
[5] = second compound 0.003 µM, first compound 3.16 µM
[6] = second compound 0.003 µM, first compound 10 µM
[7] = second compound 0.00949 µM, first compound 0.0316 µM
[8] = second compound 0.00949 µM, first compound 0.1 µM
[9] = second compound 0.00949 µM, first compound 0.316 µM
[10] = second compound 0.00949 µM, first compound 1 µM
[11] = second compound 0.00949 µM, first compound 3.16 µM
[12] = second compound 0.00949 µM, first compound 10 µM
[13] = second compound 0.03 µM, first compound 0.0316 µM
[14] = second compound 0.03 µM, first compound 0.1 µM
[15] = second compound 0.03 µM, first compound 0.316 µM
[16] = second compound 0.03 µM, first compound 1 µM
[17] = second compound 0.03 µM, first compound 3.16 µM
[18] = second compound 0.03 µM, first compound 10 µM
[19] = second compound 0.0949 µM, first compound 0.0316 µM
[20] = second compound 0.0949 µM, first compound 0.1 µM
[21] = second compound 0.0949 µM, first compound 0.316 µM
[22] = second compound 0.0949 µM, first compound 1 µM
[23] = second compound 0.0949 µM, first compound 3.16 µM
[24] = second compound 0.0949 µM, first compound 10 µM
[25] = second compound 0.3 µM, first compound 0.0316 µM
[26] = second compound 0.3 µM, first compound 0.1 µM
[27] = second compound 0.3 µM, first compound 0.316 µM
[28] = second compound 0.3 µM, first compound 1 µM
[29] = second compound 0.3 µM, first compound 3.16 µM
[30] = second compound 0.3 µM, first compound 10 µM

Cc1cc(C)c(CNC(=O)c2cc(-c3ccc(CN4CCOCC4)cc3)cc3c2cnn3C2CCCC2)c(=O)[nH]1 + CC[C@@]1(O)C(=O)OCc2c1cc1n(c2=O)Cc2cc3c(CN(C)C)c(O)ccc3nc2-1
pIC50 (second compound 0.003 µM): < 5.00
pIC50 (second compound 0.00949 µM): < 5.00
pIC50 (second compound 0.03 µM): < 5.00
pIC50 (second compound 0.0949 µM): < 5.00
pIC50 (second compound 0.3 µM): < 5.00
viability, T/C [1]: 99.4%
viability, T/C [2]: 94.9%
viability, T/C [3]: 102%
viability, T/C [4]: 95.6%
viability, T/C [5]: 101%
viability, T/C [6]: 104%
viability, T/C [7]: 96.5%
viability, T/C [8]: 105%
viability, T/C [9]: 99.9%
viability, T/C [10]: 88.7%
viability, T/C [11]: 94.7%
viability, T/C [12]: 96.5%
viability, T/C [13]: 91.8%
viability, T/C [14]: 96.1%
viability, T/C [15]: 98.4%
viability, T/C [16]: 93%
viability, T/C [17]: 97.5%
viability, T/C [18]: 112%
viability, T/C [19]: 102%
viability, T/C [20]: 101%
viability, T/C [21]: 108%
viability, T/C [22]: 98.5%
viability, T/C [23]: 97%
viability, T/C [24]: 98.6%
viability, T/C [25]: 95.6%
viability, T/C [26]: 87.7%
viability, T/C [27]: 86.1%
viability, T/C [28]: 87.9%
viability, T/C [29]: 79.9%
viability, T/C [30]: 86.9%

Cc1sc2c(c1C)C(c1ccc(Cl)cc1)=NC(CC(=O)Nc1ccc(O)cc1)c1nnc(C)n1-2 (stereo not given) + COc1cc2c(cc1O)CCNC21CSC2c3c(OC(C)=O)c(C)c4c(c3C(COC1=O)N1C(O)C3Cc5cc(C)c(OC)c(O)c5C(C21)N3C)OCO4
pIC50 (second compound 30 pM): 6.20
pIC50 (second compound 94.9 pM): 5.99
pIC50 (second compound 0.0003 µM): 5.60
pIC50 (second compound 0.000949 µM): < 5.52
pIC50 (second compound 0.003 µM): > 8.02
viability, T/C (second compound 30 pM, first compound 0.00949 µM): 94.4%
viability, T/C (second compound 30 pM, first compound 0.03 µM): 96.4%
viability, T/C (second compound 30 pM, first compound 0.0949 µM): 93.8%
viability, T/C (second compound 30 pM, first compound 0.3 µM): 69.3%
viability, T/C (second compound 30 pM, first compound 0.949 µM): 39.7%
viability, T/C (second compound 30 pM, first compound 3 µM): 21.8%
viability, T/C (second compound 94.9 pM, first compound 0.00949 µM): 103%
viability, T/C (second compound 94.9 pM, first compound 0.03 µM): 100%
viability, T/C (second compound 94.9 pM, first compound 0.0949 µM): 95%
viability, T/C (second compound 94.9 pM, first compound 0.3 µM): 80.1%
viability, T/C (second compound 94.9 pM, first compound 0.949 µM): 51.4%
viability, T/C (second compound 94.9 pM, first compound 3 µM): 26.9%
viability, T/C (second compound 0.0003 µM, first compound 0.00949 µM): 110%
viability, T/C (second compound 0.0003 µM, first compound 0.03 µM): 110%
viability, T/C (second compound 0.0003 µM, first compound 0.0949 µM): 102%
viability, T/C (second compound 0.0003 µM, first compound 0.3 µM): 88.7%
viability, T/C (second compound 0.0003 µM, first compound 0.949 µM): 65.7%
viability, T/C (second compound 0.0003 µM, first compound 3 µM): 47.4%
viability, T/C (second compound 0.000949 µM, first compound 0.00949 µM): 89.6%
viability, T/C (second compound 0.000949 µM, first compound 0.03 µM): 88%
viability, T/C (second compound 0.000949 µM, first compound 0.0949 µM): 80.9%
viability, T/C (second compound 0.000949 µM, first compound 0.3 µM): 87.3%
viability, T/C (second compound 0.000949 µM, first compound 0.949 µM): 68.2%
viability, T/C (second compound 0.000949 µM, first compound 3 µM): 52.7%
viability, T/C (second compound 0.003 µM, first compound 0.00949 µM): 6.44%
viability, T/C (second compound 0.003 µM, first compound 0.03 µM): 6.85%
viability, T/C (second compound 0.003 µM, first compound 0.0949 µM): 6.03%
viability, T/C (second compound 0.003 µM, first compound 0.3 µM): 8.32%
viability, T/C (second compound 0.003 µM, first compound 0.949 µM): 2.93%
viability, T/C (second compound 0.003 µM, first compound 3 µM): 0.8%

CC(C)n1c(=O)n(C)c2cnc3cc(F)c(-c4ccc(OCCCN5CCCCC5)nc4)cc3c21 + CC[C@@]1(O)C(=O)OCc2c1cc1n(c2=O)Cc2cc3c(CN(C)C)c(O)ccc3nc2-1
pIC50 (second compound 0.003 µM): < 5.00
pIC50 (second compound 0.00949 µM): < 5.00
pIC50 (second compound 0.03 µM): < 5.00
pIC50 (second compound 0.0949 µM): < 5.00
pIC50 (second compound 0.3 µM): < 5.00
viability, T/C [1]: 102%
viability, T/C [2]: 106%
viability, T/C [3]: 105%
viability, T/C [4]: 107%
viability, T/C [5]: 110%
viability, T/C [6]: 113%
viability, T/C [7]: 105%
viability, T/C [8]: 107%
viability, T/C [9]: 109%
viability, T/C [10]: 112%
viability, T/C [11]: 110%
viability, T/C [12]: 103%
viability, T/C [13]: 102%
viability, T/C [14]: 102%
viability, T/C [15]: 104%
viability, T/C [16]: 101%
viability, T/C [17]: 95.9%
viability, T/C [18]: 87.9%
viability, T/C [19]: 116%
viability, T/C [20]: 113%
viability, T/C [21]: 104%
viability, T/C [22]: 86.5%
viability, T/C [23]: 74.9%
viability, T/C [24]: 71.9%
viability, T/C [25]: 110%
viability, T/C [26]: 107%
viability, T/C [27]: 108%
viability, T/C [28]: 88.1%
viability, T/C [29]: 78.5%
viability, T/C [30]: 71.4%
